EC50 data for 15 compounds are collected here from patent US8536354B2, “Steroidal ligands and their use in gene switch modulation” (Intrexon Corporation, priority 2008, dated 2013).

For test [1], the target named is wild-type Aedes aegypti EcR (AaEcR; GAL4-EcR DEF with VP16-RXR-USP chimera) (Aedes aegypti, UniProt P49880). The experiment in a line: Two-hybrid gene switch assay, luciferase reporter, wild-type AaEcR, mouse NIH3T3 cells. Type of test: cell-based. Background: A reporter such as luciferase makes a cellular process visible.
wild-type Aedes aegypti EcR (AaEcR; GAL4-EcR DEF with VP16-RXR-USP chimera), sequence (P49880 with tags, fused parts or gaps limits assumed, change not shown): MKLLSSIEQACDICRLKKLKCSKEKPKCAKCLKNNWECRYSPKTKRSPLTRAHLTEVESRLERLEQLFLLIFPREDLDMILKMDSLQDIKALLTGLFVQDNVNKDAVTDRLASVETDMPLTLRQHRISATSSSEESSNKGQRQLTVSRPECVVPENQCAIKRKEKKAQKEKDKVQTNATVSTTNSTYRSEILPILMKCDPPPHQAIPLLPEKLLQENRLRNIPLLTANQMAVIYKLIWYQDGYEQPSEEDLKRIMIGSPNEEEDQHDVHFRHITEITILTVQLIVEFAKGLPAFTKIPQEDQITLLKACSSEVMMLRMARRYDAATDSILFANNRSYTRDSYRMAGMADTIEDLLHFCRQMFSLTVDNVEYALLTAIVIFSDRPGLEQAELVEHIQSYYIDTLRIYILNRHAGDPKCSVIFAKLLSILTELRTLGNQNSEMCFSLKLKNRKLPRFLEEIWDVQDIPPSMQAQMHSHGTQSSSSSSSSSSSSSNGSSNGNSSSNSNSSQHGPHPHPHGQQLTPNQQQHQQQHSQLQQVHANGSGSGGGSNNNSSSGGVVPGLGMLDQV
The target in test [2] is T1, TmEcR (GAL4-EcR DEF with VP16-RXR partner) (Tenebrio molitor, UniProt O02035).
T1 sequence (O02035 194-491): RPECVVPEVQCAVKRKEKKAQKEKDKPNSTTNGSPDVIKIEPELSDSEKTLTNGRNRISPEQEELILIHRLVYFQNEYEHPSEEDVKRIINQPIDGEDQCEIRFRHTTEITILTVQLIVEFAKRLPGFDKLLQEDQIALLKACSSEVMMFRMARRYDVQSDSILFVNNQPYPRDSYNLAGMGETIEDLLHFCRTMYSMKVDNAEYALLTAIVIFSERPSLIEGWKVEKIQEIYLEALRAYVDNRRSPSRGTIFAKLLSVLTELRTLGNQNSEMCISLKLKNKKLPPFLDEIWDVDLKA
T1 sequence (P28704 1-520 partner): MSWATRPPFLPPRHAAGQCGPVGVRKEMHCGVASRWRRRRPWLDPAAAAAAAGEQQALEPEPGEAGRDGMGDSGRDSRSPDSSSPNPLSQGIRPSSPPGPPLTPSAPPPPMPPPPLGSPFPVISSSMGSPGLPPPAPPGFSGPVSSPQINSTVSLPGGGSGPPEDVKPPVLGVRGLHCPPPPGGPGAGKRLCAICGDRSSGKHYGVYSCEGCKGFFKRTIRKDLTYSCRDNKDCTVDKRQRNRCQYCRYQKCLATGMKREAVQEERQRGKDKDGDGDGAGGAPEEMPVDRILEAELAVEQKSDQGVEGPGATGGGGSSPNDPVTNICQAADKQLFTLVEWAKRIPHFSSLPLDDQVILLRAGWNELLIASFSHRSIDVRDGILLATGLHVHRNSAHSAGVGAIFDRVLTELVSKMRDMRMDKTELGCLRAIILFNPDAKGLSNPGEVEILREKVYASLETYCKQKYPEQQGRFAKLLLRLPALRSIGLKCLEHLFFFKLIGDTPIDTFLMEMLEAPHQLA
The test is described as follows: Two-hybrid gene switch assay, luciferase reporter, TmEcR, mouse NIH3T3 cells.

Setting [3] is: FIG. 14A/14B, GAL4-EcR(DEF) with VP16-RXR-USP chimera, read-out: EC50.
Where [4] appears, read: EC50, FIG. 14A/14B, GAL4-EcR(DEF).
The mark [5] stands for this setting: EC50, FIG. 14A/14B, GAL4-EcR(DEF) with VP16-RXR-USP chimera.
Where [6] appears, read: EC50, FIG. 16, GAL4-EcR (DEF) / VP16-RXR-USP chimera.

Like-named read-outs stand apart in the source and are kept apart here.

Broadly, the EC50 is the concentration giving half of the maximal effect. As for `C[C@@H]1C(=O)O[C@H](C)[C@H]1C[C@@H](O)[C@](C)(O)[C@H]1CC[C@@]2(O)C3=CC(=O)[C@@H]4C[C@@H](O)[C@@H](O)C[C@]4(C)[C@H]3CC[C@]12C` [cyasterone], the EC50 was 3 µM in test [1] (setting [3]) and over 33 µM in test [2] (setting [4]).
Turning to `CCCCCCCCCC(=O)OC1CC2(C)C(C(C)(O)C(O)CCC(C)(C)O)CCC2(O)C2=CC(=O)C3CC(O)C(O)CC3(C)C21` (stereo not shown) [turkesterone-11a-decanoate], the EC50 in test [1] (setting [5]) and in test [2] (setting [4]) was over 33 µM in each case.
With `CC(C)(O)CCC(=O)[C@](C)(O)[C@H]1CC[C@@]2(O)C3=CC(=O)[C@@H]4C[C@@H](O)[C@@H](O)C[C@]4(C)[C@H]3CC[C@]12C` [Compound 22-dehydro-20-hydroxyecdysone], the values for the concentration for a half-maximal effect (EC50) in test [1] (setting [3]) and in test [2] (setting [4]) were about 2 µM and about 15 µM, respectively.
Turning to `CC(C)(O)CC[C@@H](O)[C@](C)(O)[C@H]1CC[C@@]2(O)C3=CC(=O)[C@]4(O)C[C@@H](O)[C@@H](O)C[C@]4(C)[C@H]3CC[C@]12C` [polypodine B], the concentration for a half-maximal effect (EC50) was 0.173 µM in test [1] (setting [5]); 0.05 µM in test [1] (setting [6]); about 10 µM in test [2] (setting [4]); about 3 µM in test [2] (EC50, FIG. 16, GAL4-EcR (DEF)).
Consider `CC(C)(O)CC[C@@H](O)[C@](C)(O)[C@H]1CC[C@@]2(O)C3=CC(=O)[C@@H]4C[C@@H](O)[C@@H](O)C[C@]4(C)C3=CC[C@]12C` [Compound 25-hydroxydacryhainansterone], for which the figures for the EC50 in test [1] (setting [3]) and in test [2] (setting [4]) were about 5 µM and about 20 µM, respectively.
As for `CC(C)(O)CC[C@@H](O)[C@](C)(O)[C@H]1CC[C@@]2(O)C3=C[C@@H](O)[C@@H]4C[C@@H](O)[C@@H](O)C[C@]4(C)[C@H]3CC[C@]12C` [Compound 6b-hydroxy-20-hydroxyecdysone], the results for the EC50 in test [1] (setting [3]) and in test [2] (setting [4]) were about 6 µM and about 20 µM, respectively.
With `CC(C)(O)CC[C@@H](OC(=O)c1ccc[nH]1)[C@](C)(O)[C@H]1CC[C@@]2(O)C3=CC(=O)[C@@H]4C[C@@H](O)[C@@H](O)C[C@]4(C)[C@H]3CC[C@]12C`, the EC50 in test [1] (setting [3]) was about 10 µM; in test [2] (setting [4]) it was about 20 µM.
In the case of `CC(C)(O)CC[C@@H](O)[C@](C)(O)[C@H]1CC[C@@]2(O)C3=CC(=O)[C@@H]4C[C@H]5OC(C)(C)O[C@H]5C[C@]4(C)[C@H]3CC[C@]12C` [20-hydroxyecdysone-2,3-acetonide], the EC50 was about 15 µM in test [1] (setting [3]) and about 10 µM in test [2] (setting [4]).
Turning to `CC(C)(O)C(CCC(C)(O)C1CCC2(O)C3=CC(=O)C4CC(O)C(O)CC4(C)C3CCC12C)OC(=O)c1ccc[nH]1` (stereo not shown) [canescensterone], the values for the half-maximal effective concentration (EC50) in test [1] (setting [3]) and in test [2] (setting [4]) were about 0.2 µM and about 0.33 µM, respectively.
In the case of `CCC(CC(O)C(C)(O)C1CCC2(O)C3=CC(=O)C4CC(O)C(O)CC4(C)C3CCC12C)C(C)(C)O` (stereo not shown) [makisterone C], the EC50 is 1.02 µM in test [1] (setting [3]) and about 4 µM in test [2] (setting [4]).
`C[C@H]([C@H](O)CCC(C)(C)O)[C@H]1CC[C@@]2(O)C3=CC(=O)[C@@H]4C[C@@H](O)[C@@H](O)C[C@]4(C)[C@H]3CC[C@]12C` [ecdysone]: the EC50 in test [1] (setting [5]) was about 15 µM; in test [1] (setting [6]), 3.43 µM; in test [2] (setting [4]), over 33 µM; in test [2] (EC50, FIG. 16, GAL4-EcR (DEF)), over 33 µM.
As for `CC(C)CC[C@@H](O)[C@](C)(O)[C@H]1CC[C@@]2(O)C3=CC(=O)[C@@H]4C[C@@H](O)[C@@H](O)C[C@]4(C)[C@H]3[C@H](O)C[C@]12C` [ajugasterone C], the EC50 turned out to be 0.07 µM in test [1] (setting [5]) and 9.51 µM in test [2] (setting [4]).
Consider `CC(=O)OCC(=O)O[C@H](CCC(C)(C)O)[C@](C)(O)[C@H]1CC[C@@]2(O)C3=CC(=O)[C@@H]4C[C@@H](O)[C@@H](O)C[C@]4(C)[C@H]3CC[C@]12C` [20-hydroxyecdysone 22-acetoxyacetate], for which the results for the half-maximal effective concentration (EC50) in test [1] (setting [3]) and in test [2] (setting [4]) were about 3.3 µM and about 10 µM, respectively.
Take `CC(C(O)CCC(C)(C)O)C1CCC2(O)C3=CC(=O)C4CC(O)CCC4(C)C3CCC12C` (stereo not shown) [Compound 2-deoxyecdysone]: the concentration giving a half-maximal response (EC50) in test [1] (setting [3]) is about 10 µM; in test [2] (setting [4]) it was over 33 µM.
Regarding `C[C@@H](CO)CC[C@@H](O)[C@](C)(O)[C@H]1CC[C@@]2(O)C3=CC(=O)[C@@H]4C[C@@H](O)[C@@H](O)C[C@]4(C)[C@H]3CC[C@]12C` [(25R)-inokosterone], the EC50 in test [1] (setting [3]) is about 2.5 µM; in test [2] (setting [4]), about 20 µM.
